# Patent US10414811B2, “Protease-resistant lipidated GLP-1 analogs” (MEDIMMUNE LIMITED, priority 2015, dated 2019)
# Like-named read-outs stand apart in the source and are kept apart here. Numbered stars: 1 amine (or outer) side, 2 acyl side, 3 side chain; on linkers, the order of the positions; unused ones are H or OH. Square brackets hold non-standard residues; d marks the D form. Side chains are listed from the residue outwards. Peptide text beside a SMILES is read from it. * marks the point of attachment. C18 diacid = O=C(O)CCCCCCCCCCCCCCCCC(=O)*; γGlu = O=C(O)[C@H](CCC(=O)[*:2])N[*:1]; Stearoyl = CCCCCCCCCCCCCCCCCC(=O)*; αMeF = C[C@](N)(Cc1ccccc1)C(=O)O; αMeK = C[C@](N)(CCCCN)C(=O)O; αMeS = C[C@](N)(CO)C(=O)O; AEEA = NCCOCCOCC(=O)O; Aib = CC(C)(N)C(=O)O
# Columns and labels:
# Type in all cases: cell-based
# [1] = target: T1, human glucagon receptor (GCGR) (Homo sapiens, UniProt P47871); assay: cAMP assay, human GCGR cells; conditions: cAMP assay
# T1 construct: expressed in transfected cells
# T1 sequence (P47871 26-477): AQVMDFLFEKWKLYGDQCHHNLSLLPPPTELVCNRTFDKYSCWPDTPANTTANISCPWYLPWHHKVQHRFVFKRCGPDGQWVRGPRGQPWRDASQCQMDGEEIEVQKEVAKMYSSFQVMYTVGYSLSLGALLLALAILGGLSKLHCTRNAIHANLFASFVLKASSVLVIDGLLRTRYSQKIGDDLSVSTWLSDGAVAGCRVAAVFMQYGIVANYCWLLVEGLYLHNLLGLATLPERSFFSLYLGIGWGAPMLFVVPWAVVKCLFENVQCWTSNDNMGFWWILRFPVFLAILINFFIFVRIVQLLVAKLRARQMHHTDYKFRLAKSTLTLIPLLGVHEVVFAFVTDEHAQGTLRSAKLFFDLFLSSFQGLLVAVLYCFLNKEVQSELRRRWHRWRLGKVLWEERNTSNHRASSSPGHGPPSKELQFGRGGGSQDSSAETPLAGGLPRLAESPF
# Procedure, shortened: (§1)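 Peptide-stimulated cAMP measured by two-step HTRF after a 30 min room-temperature incubation with receptor-expressing cells (hGLP-1R, hGIPR at 1×10^5 cells/ml; hGCGR at 2×10^5 cells/ml). Duplicate dilutions; EC50 from 4-parameter logistic fit of % Delta F.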
# [2] = target: T2, human GLP-1 receptor (GLP-1R) (Homo sapiens, UniProt P43220); assay: cAMP assay, human GLP-1R cells
# T2 construct: expressed in transfected cells
# T2 sequence (P43220 24-463): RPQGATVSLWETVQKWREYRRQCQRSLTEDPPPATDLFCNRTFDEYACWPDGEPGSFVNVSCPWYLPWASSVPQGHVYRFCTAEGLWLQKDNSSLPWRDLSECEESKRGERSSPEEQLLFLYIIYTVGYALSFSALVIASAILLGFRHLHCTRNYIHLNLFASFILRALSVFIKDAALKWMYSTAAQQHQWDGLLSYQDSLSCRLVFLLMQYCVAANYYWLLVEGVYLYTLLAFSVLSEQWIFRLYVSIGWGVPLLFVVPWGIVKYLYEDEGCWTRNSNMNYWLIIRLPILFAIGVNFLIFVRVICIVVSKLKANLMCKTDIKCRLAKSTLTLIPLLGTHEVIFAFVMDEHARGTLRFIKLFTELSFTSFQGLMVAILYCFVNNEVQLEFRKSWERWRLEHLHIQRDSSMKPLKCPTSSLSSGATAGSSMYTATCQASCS
# Procedure, shortened: as §1
# [3] = target: T3, human glucose-dependent insulinotropic peptide receptor (GIPR) (Homo sapiens, UniProt P48546); assay: cAMP assay, human GIPR cells; conditions: cAMP assay
# T3 construct: expressed in transfected cells
# T3 sequence (P48546 22-466): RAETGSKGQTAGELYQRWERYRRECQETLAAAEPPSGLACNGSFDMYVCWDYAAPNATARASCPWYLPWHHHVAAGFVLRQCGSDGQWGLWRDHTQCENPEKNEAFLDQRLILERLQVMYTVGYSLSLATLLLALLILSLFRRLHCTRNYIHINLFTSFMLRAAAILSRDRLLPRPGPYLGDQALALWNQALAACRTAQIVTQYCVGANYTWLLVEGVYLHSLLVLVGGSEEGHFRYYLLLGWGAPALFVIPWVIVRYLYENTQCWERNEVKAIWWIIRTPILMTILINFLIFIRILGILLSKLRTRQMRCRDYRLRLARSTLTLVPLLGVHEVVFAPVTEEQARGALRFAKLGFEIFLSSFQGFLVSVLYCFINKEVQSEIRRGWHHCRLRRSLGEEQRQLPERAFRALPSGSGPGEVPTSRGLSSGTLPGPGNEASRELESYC
# Procedure, shortened: as §1
# GLP-1R (INS1e assay) = target: T4, GLP-1R (INS1e assay) (Rattus norvegicus, UniProt P32301); assay: INS1e assay, cAMP activity at GLP-1R; conditions: mono-lipidated peptides
# T4 construct: endogenous in cells; host or cells: INS-1E cells
# T4 sequence (P32301 22-463): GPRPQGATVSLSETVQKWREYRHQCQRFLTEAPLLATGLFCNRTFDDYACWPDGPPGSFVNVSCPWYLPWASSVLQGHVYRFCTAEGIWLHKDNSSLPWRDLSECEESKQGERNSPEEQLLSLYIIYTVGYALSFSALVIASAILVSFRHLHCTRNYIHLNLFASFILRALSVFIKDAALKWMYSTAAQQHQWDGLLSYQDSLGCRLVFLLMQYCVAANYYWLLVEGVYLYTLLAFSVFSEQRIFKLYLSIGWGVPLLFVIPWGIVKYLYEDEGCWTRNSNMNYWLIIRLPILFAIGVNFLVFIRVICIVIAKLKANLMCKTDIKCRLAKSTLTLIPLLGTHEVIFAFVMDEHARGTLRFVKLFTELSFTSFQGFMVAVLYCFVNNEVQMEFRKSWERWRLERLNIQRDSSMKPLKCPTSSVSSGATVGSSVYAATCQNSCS
# Procedure, shortened: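 cAMP was quantified by two-step HTRF, using anti-cAMP cryptate donor and cAMP-d2 acceptor, each diluted 1/20 in conjugate and lysis buffer. EC50 values of the synthetic peptides were derived from the cAMP readout.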
# [4] = first determination (n1), read-out: Primary assay EC50 Gluc-R (n1)
# [5] = second determination (n2), read-out: Primary assay EC50 Gluc-R (n2)
# [6] = cAMP assay, first determination (n1), read-out: Primary assay EC50 GLP-1R n1
# [7] = cAMP assay, second determination (n2), read-out: Primary assay EC50 GLP-1R n2
# [8] = mean of n1 and n2, read-out: Mean pM GLP-1R
# [9] = first determination (n1), read-out: Primary assay EC50 GIP-R (n1)
# [10] = second determination (n2), read-out: Primary assay EC50 GIP-R (n2)
# [11] = mean of n1 and n2, read-out: INS1e assay EC50 Mean pM GLP-1R
# [12] = replicate n1, read-out: INS1e assay EC50 GLP-1R n1
# [13] = replicate n2, read-out: INS1e assay EC50 GLP-1R n2
SMILES,"EC50 [1, 4] [nM]","EC50 [1, 5] [nM]","EC50 [2, 6] [pM]","EC50 [2, 7] [pM]","EC50 [2, 8] [pM]","EC50 [3, 9] [nM]","EC50 [3, 10] [nM]",EC50 (GLP-1R (INS1e assay); [11]) [pM],EC50 (GLP-1R (INS1e assay); [12]) [pM],EC50 (GLP-1R (INS1e assay); [13]) [pM]
CC[C@H](C)[C@H](NC(=O)[C@](C)(Cc1ccccc1)NC(=O)[C@H](CCC(=O)O)NC(=O)[C@H](CCC(=O)O)NC(=O)[C@H](C)NC(=O)[C@H](C)NC(=O)[C@H](CCC(=O)O)NC(=O)CNC(=O)[C@H](CCC(=O)O)NC(=O)[C@H](CC(C)C)NC(=O)[C@](C)(Cc1ccccc1)NC(=O)[C@H](CO)NC(=O)[C@](C)(CO)NC(=O)[C@@H](NC(=O)[C@H](CC(=O)O)NC(=O)[C@H](CO)NC(=O)[C@@H](NC(=O)[C@](C)(Cc1ccccc1)NC(=O)[C@H](CO)NC(=O)CNC(=O)[C@H](CCC(=O)O)NC(=O)C(C)(C)NC(=O)[C@@H](N)Cc1c[nH]cn1)[C@@H](C)O)C(C)C)C(=O)N[C@@H](C)C(=O)N[C@@](C)(Cc1ccccc1)C(=O)N[C@H](C(=O)N[C@H](C(=O)N[C@@](C)(CCCCN)C(=O)NCC(=O)NCC(N)=O)C(C)C)C(C)C [compound 42] (H-H[Aib]EGS[αMeF]TSDV[αMeS]S[αMeF]LEGEAAEE[αMeF]IA[αMeF]VV[αMeK]GG-NH2),≥ 31,≥ 31,6.9,11,8.7,≥ 31,≥ 31,187,207,167
CC[C@H](C)[C@H](NC(=O)[C@](C)(Cc1ccccc1)NC(=O)[C@H](CCC(=O)O)NC(=O)[C@H](CCCCNC(=O)COCCOCCNC(=O)COCCOCCNC(=O)CC[C@H](NC(=O)CCCCCCCCCCCCCCCCC(=O)O)C(=O)O)NC(=O)[C@H](C)NC(=O)[C@H](C)NC(=O)[C@H](CCC(=O)O)NC(=O)CNC(=O)[C@H](CCC(=O)O)NC(=O)[C@H](CC(C)C)NC(=O)[C@](C)(Cc1ccccc1)NC(=O)[C@H](CO)NC(=O)[C@](C)(CO)NC(=O)[C@@H](NC(=O)[C@H](CC(=O)O)NC(=O)[C@H](CO)NC(=O)[C@@H](NC(=O)[C@H](Cc1ccccc1)NC(=O)[C@H](CO)NC(=O)CNC(=O)[C@H](CCC(=O)O)NC(=O)C(C)(C)NC(=O)[C@@H](N)Cc1c[nH]cn1)[C@@H](C)O)C(C)C)C(=O)N[C@@H](C)C(=O)N[C@@](C)(Cc1ccccc1)C(=O)N[C@H](C(=O)N[C@H](C(=O)N[C@@](C)(CCCCN)C(=O)NCC(=O)NCC(N)=O)C(C)C)C(C)C [compound 45],≥ 26,≥ 26,3800,3300,3560,≥ 26,≥ 26,94600,76100,113000
CC[C@H](C)[C@H](NC(=O)[C@](C)(Cc1ccccc1)NC(=O)[C@H](CCC(=O)O)NC(=O)[C@H](CCCCNC(=O)COCCOCCNC(=O)COCCOCCNC(=O)CC[C@H](NC(=O)CCCCCCCCCCCCCCCCC(=O)O)C(=O)O)NC(=O)[C@H](C)NC(=O)[C@H](C)NC(=O)[C@H](CCC(=O)O)NC(=O)CNC(=O)[C@H](CCC(=O)O)NC(=O)[C@H](CC(C)C)NC(=O)[C@](C)(Cc1ccccc1)NC(=O)[C@H](CO)NC(=O)[C@](C)(CO)NC(=O)[C@@H](NC(=O)[C@H](CC(=O)O)NC(=O)[C@H](CO)NC(=O)[C@@H](NC(=O)[C@](C)(Cc1ccccc1)NC(=O)[C@H](CO)NC(=O)CNC(=O)[C@H](CCC(=O)O)NC(=O)C(C)(C)NC(=O)[C@@H](N)Cc1c[nH]cn1)[C@@H](C)O)C(C)C)C(=O)N[C@@H](C)C(=O)N[C@@](C)(Cc1ccccc1)C(=O)N[C@H](C(=O)N[C@H](C(=O)N[C@@H](CCCCN)C(=O)NCC(=O)NCC(N)=O)C(C)C)C(C)C [compound 50],≥ 26,,170,260,216,≥ 26,,32400,22100,42600
CCCCCCCCCCCCCCCCCC(=O)NCCOCCOCC(=O)NCCOCCOCC(=O)NCCOCCOCC(=O)NCCCC[C@H](NC(=O)[C@H](C)NC(=O)[C@H](C)NC(=O)[C@H](CCC(=O)O)NC(=O)CNC(=O)[C@H](CCC(=O)O)NC(=O)[C@H](CC(C)C)NC(=O)[C@](C)(Cc1ccccc1)NC(=O)[C@H](CO)NC(=O)[C@H](CO)NC(=O)[C@@H](NC(=O)[C@H](CC(=O)O)NC(=O)[C@H](CO)NC(=O)[C@@H](NC(=O)[C@](C)(Cc1ccccc1)NC(=O)[C@H](CO)NC(=O)CNC(=O)[C@H](CCC(=O)O)NC(=O)C(C)(C)NC(=O)[C@@H](N)Cc1c[nH]cn1)[C@@H](C)O)C(C)C)C(=O)N[C@@H](CCC(=O)O)C(=O)N[C@@](C)(Cc1ccccc1)C(=O)N[C@H](C(=O)N[C@@H](C)C(=O)N[C@@](C)(Cc1ccccc1)C(=O)N[C@H](C(=O)N[C@H](C(=O)N[C@@](C)(CCCCN)C(=O)NCC(=O)NCC(N)=O)C(C)C)C(C)C)[C@@H](C)CC [compound 52],≥ 26,≥ 26,1.5,2.5,2,≥ 26,≥ 26,,21.4,
CCCCCCCCCCCCCCCCCC(=O)NCCOCCOCC(=O)NCCOCCOCC(=O)NCCOCCOCC(=O)NCCCC[C@H](NC(=O)[C@H](C)NC(=O)[C@H](C)NC(=O)[C@H](CCC(=O)O)NC(=O)CNC(=O)[C@H](CCC(=O)O)NC(=O)[C@H](CC(C)C)NC(=O)[C@](C)(Cc1ccccc1)NC(=O)[C@H](CO)NC(=O)[C@](C)(CO)NC(=O)[C@@H](NC(=O)[C@H](CC(=O)O)NC(=O)[C@H](CO)NC(=O)[C@@H](NC(=O)[C@](C)(Cc1ccccc1)NC(=O)[C@H](CO)NC(=O)CNC(=O)[C@H](CCC(=O)O)NC(=O)C(C)(C)NC(=O)[C@@H](N)Cc1c[nH]cn1)[C@@H](C)O)C(C)C)C(=O)N[C@@H](CCC(=O)O)C(=O)N[C@@](C)(Cc1ccccc1)C(=O)N[C@H](C(=O)N[C@@H](C)C(=O)N[C@@H](Cc1c[nH]c2ccccc12)C(=O)N[C@H](C(=O)N[C@H](C(=O)N[C@@](C)(CCCCN)C(=O)NCC(=O)NCC(N)=O)C(C)C)C(C)C)[C@@H](C)CC [compound 55] (H-H[Aib]EGS[αMeF]TSDV[αMeS]S[αMeF]LEGEAAK([AEEA-AEEA-AEEA-Stearoyl])E[αMeF]IAWVV[αMeK]GG-NH2),≥ 25,≥ 25,1.4,2.3,1.8,≥ 25,≥ 25,11,12.5,10.1
CC[C@H](C)[C@H](NC(=O)[C@H](Cc1ccccc1)NC(=O)[C@H](CCC(=O)O)NC(=O)[C@H](CCCCN)NC(=O)[C@H](C)NC(=O)[C@H](C)NC(=O)[C@H](CCC(=O)O)NC(=O)CNC(=O)[C@H](CCC(=O)O)NC(=O)[C@H](CC(C)C)NC(=O)[C@](C)(Cc1ccccc1)NC(=O)[C@H](CO)NC(=O)[C@](C)(CO)NC(=O)[C@@H](NC(=O)[C@H](CC(=O)O)NC(=O)[C@H](CO)NC(=O)[C@@H](NC(=O)[C@](C)(Cc1ccccc1)NC(=O)[C@H](CO)NC(=O)CNC(=O)[C@H](CCC(=O)O)NC(=O)C(C)(C)NC(=O)[C@@H](N)Cc1c[nH]cn1)[C@@H](C)O)C(C)C)C(=O)N[C@@H](CCCCNC(=O)COCCOCCNC(=O)COCCOCCNC(=O)CC[C@H](NC(=O)CCCCCCCCCCCCCCCCC(=O)O)C(=O)O)C(=O)N[C@@H](Cc1c[nH]c2ccccc12)C(=O)N[C@H](C(=O)N[C@H](C(=O)N[C@@H](CCC(=O)O)C(=O)NCC(=O)NCC(N)=O)C(C)C)C(C)C [compound 65] (H-H[Aib]EGS[αMeF]TSDV[αMeS]S[αMeF]LEGEAAKEFIK([AEEA-AEEA-γGlu-C18 diacid])WVVEGG-NH2),≥ 25.1,≥ 25.1,19.7,14,16.9,≥ 25.1,≥ 25.1,3160,2570,3740
